Experimental data: ChEMBL document CHEMBL5226379, “Hypouricemic Actions of the Pericarp of Mangosteen in Vitro and in Vivo” (J Nat Prod, 2023)
Calls of active or inactive are those of the source. No cut-off for these calls is given here.

How the values were obtained:
Rattus norvegicus [1] = experiment: (§1) Anti-hyperuricemic activity against potassium oxonate-induced hyperuricemic Sprague-Dawley rat model assessed as glomerular load of urate measured per body surface area of 0.0311 m2 at 4 mg/kg, po pre-administered via gavage twice daily for 5 times followed by potassium oxonate injection for 1 hrs prior to last dose and measured after 3 hrs; assay type: functional; conditions: time 123 hrs
Rattus norvegicus [2] = experiment: (§2) Anti-hyperuricemic activity against potassium oxonate-induced hyperuricemic Sprague-Dawley rat model assessed as increase in urinary urate level at 4 mg/kg, po pre-administered via gavage twice daily for 5 times followed by potassium oxonate injection for 1 hrs prior to last dose and measured after 3 hrs relative to control; assay type: functional; conditions: time 123 hrs
Rattus norvegicus [3] = experiment: as §1, with “2” for “4”; assay type: functional; conditions: time 123 hrs
Rattus norvegicus [4] = experiment: as §1, with “clearance” for “glomerular load”, “creatinine” for “urate”, “2” for “4”; assay type: functional; conditions: time 123 hrs
Rattus norvegicus [5] = experiment: as §1, with “excretion” for “glomerular load”, “urate per volume of glomerular filtration” for “urate”, “2” for “4”; assay type: functional; conditions: time 123 hrs
Rattus norvegicus [6] = experiment: as §1, with “clearance” for “glomerular load”; assay type: functional; conditions: time 123 hrs
Mus musculus [7] = experiment: Anti-hyperouricemic activity in uric acid-induced hyperuricemic Kunming mouse model assessed as decrease in serum uric acid level at 4 mg/kg, IG pre-administered with uric acid for 30 mins followed by compound treatment and measured after 2 hrs by phosphotungstic acid method; assay type: functional, organism-based
Mus musculus [8] = experiment: Hypouricemic activity in potassium oxonate-induced hyperuricemic Kunming mouse model assessed as decrease in serum uric acid level at 4 mg/kg, IG pre-administered with potassium oxonate for one hour followed by compound treatment and measured after 2 hrs by phosphotungstic acid method relative to control; assay type: functional; set-up: scale not given: the % may be the effect or the level left
Rattus norvegicus [9] = experiment: as §2, with “fractional excretion of” for “increase in urinary”, “urate” for “urate level”, “1” for “4”; assay type: functional; conditions: time 123 hrs
Mus musculus [10] = experiment: Hypouricemic activity in potassium oxonate-induced hyperuricemic Kunming mouse model assessed as decrease in serum uric acid level at 4 mg/kg, IG by phosphotungstic acid method; assay type: functional, organism-based; conditions: time <= 6.0 hrs, TDE = time-dependent effect
Rattus norvegicus [11] = experiment: (§3) Anti-hyperuricemic activity against potassium oxonate-induced hyperuricemic Sprague-Dawley rat model assessed as serum urate level at 1 mg/kg, po pre-administered via gavage twice daily for 5 times followed by potassium oxonate injection for 1 hrs prior to last dose and measured after 3 hrs; assay type: functional; conditions: time 123 hrs
Rattus norvegicus [12] = experiment: as §3, with “ratio of urinary” for “serum”, “to urinary creatinine” for “level”; assay type: functional; conditions: time 123 hrs
Rattus norvegicus [13] = experiment: as §1, with “clearance” for “glomerular load”, “creatinine” for “urate”; assay type: functional; conditions: time 123 hrs
Mus musculus [14] = experiment: Anti-hyperuricemic activity against uric acid-induced hyperuricemic Kunming mouse model assessed as decrease in URAT1 protein level in kidney at 2 to 8 mg/kg, pre-administered with uric acid for 3.5 days followed by compound administration via gavage twice a day for seven times by ELISA analysis; assay type: functional, organism-based; conditions: dose 2-8 mg/kg, time 7.0 day
Rattus norvegicus [15] = experiment: Anti-hyperuricemic activity against potassium oxonate-induced hyperuricemic Sprague-Dawley rat model assessed as urinary urate at 4 mg/kg, po pre-administered via gavage twice daily for 5 times followed by potassium oxonate injection for 1 hrs prior to last dose and measured after 3 hrs; assay type: functional; conditions: time 123 hrs
Rattus norvegicus [16] = experiment: Anti-hyperuricemic activity against potassium oxonate-induced hyperuricemic Sprague-Dawley rat model assessed as fractional excretion of urate at 2 mg/kg, po pre-administered via gavage twice daily for 5 times followed by potassium oxonate injection for 1 hrs prior to last dose and measured after 3 hrs relative to control; assay type: functional; conditions: time 123 hrs
[17] = Acute toxicity in mouse assessed as change in body weight at 50 g/Kg, IG measured for 14 days; conditions: in vivo, po, 50000 mg/kg, 336 h, time 14 day
Rattus norvegicus [18] = experiment: Anti-hyperuricemic activity against potassium oxonate-induced hyperuricemic Sprague-Dawley rat model assessed as serum creatinine level at 2 mg/kg, po pre-administered via gavage twice daily for 5 times followed by potassium oxonate injection for 1 hrs prior to last dose and measured after 3 hrs; assay type: functional; conditions: time 123 hrs
Rattus norvegicus [19] = experiment: Anti-hyperuricemic activity against potassium oxonate-induced hyperuricemic Sprague-Dawley rat model assessed as serum creatinine level at 1 mg/kg, po pre-administered via gavage twice daily for 5 times followed by potassium oxonate injection for 1 hrs prior to last dose and measured after 3 hrs; assay type: functional; conditions: time 123 hrs
Rattus norvegicus [20] = experiment: Anti-hyperuricemic activity against potassium oxonate-induced hyperuricemic Sprague-Dawley rat model assessed as urinary creatinine level at 2 mg/kg, po pre-administered via gavage twice daily for 5 times followed by potassium oxonate injection for 1 hrs prior to last dose and measured after 3 hrs; assay type: functional; conditions: time 123 hrs
Rattus norvegicus [21] = experiment: as §1, with “1” for “4”; assay type: functional; conditions: time 123 hrs
Rattus norvegicus [22] = experiment: Anti-hyperuricemic activity against potassium oxonate-induced hyperuricemic Sprague-Dawley rat model assessed as serum urea nitrogen level at 4 mg/kg, po pre-administered via gavage twice daily for 5 times followed by potassium oxonate injection for 1 hrs prior to last dose and measured after 3 hrs; assay type: functional; conditions: time 123 hrs
Rattus norvegicus [23] = experiment: Anti-hyperuricemic activity against potassium oxonate-induced hyperuricemic Sprague-Dawley rat model assessed as urinary urate at 2 mg/kg, po pre-administered via gavage twice daily for 5 times followed by potassium oxonate injection for 1 hrs prior to last dose and measured after 3 hrs; assay type: functional; conditions: time 123 hrs
Rattus norvegicus [24] = experiment: Anti-hyperuricemic activity against potassium oxonate-induced hyperuricemic Sprague-Dawley rat model assessed as serum urea nitrogen level at 2 mg/kg, po pre-administered via gavage twice daily for 5 times followed by potassium oxonate injection for 1 hrs prior to last dose and measured after 3 hrs; assay type: functional; conditions: time 123 hrs
Homo sapiens = species: Homo sapiens; experiment: Inhibition of uricase (unknown origin) using uric acid as substrate at 75 mg/L preincubated with compounds for 15 mins followed by uric acid addition
Rattus norvegicus [25] = experiment: Anti-hyperuricemic activity against potassium oxonate-induced hyperuricemic Sprague-Dawley rat model assessed as urinary urate level at 4 mg/kg, po pre-administered via gavage twice daily for 5 times followed by potassium oxonate injection for 1 hrs prior to last dose and measured after 3 hrs; assay type: functional; conditions: time 123 hrs
Mus musculus [26] = experiment: Anti-hyperuricemic activity against uric acid-induced hyperuricemic Kunming mouse model assessed as decrease in GLUT9 protein level in kidney at 2 to 8 mg/kg, pre-administered with uric acid for 3.5 days followed by compound administration via gavage twice a day for seven times by ELISA analysis; assay type: functional, organism-based; conditions: dose 2-8 mg/kg, time 7.0 day
Rattus norvegicus [27] = experiment: Anti-hyperuricemic activity against potassium oxonate-induced hyperuricemic Sprague-Dawley rat model assessed as serum creatinine level at 4 mg/kg, po pre-administered via gavage twice daily for 5 times followed by potassium oxonate injection for 1 hrs prior to last dose and measured after 3 hrs; assay type: functional; conditions: time 123 hrs
[28] = Acute toxicity in mouse assessed as mortality at 50 g/Kg, IG measured for 14 days; conditions: in vivo, po, 50000 mg/kg, 336 h, time 14 day
Rattus norvegicus [29] = experiment: Anti-hyperuricemic activity against potassium oxonate-induced hyperuricemic Sprague-Dawley rat model assessed as urinary creatinine level at 4 mg/kg, po pre-administered via gavage twice daily for 5 times followed by potassium oxonate injection for 1 hrs prior to last dose and measured after 3 hrs; assay type: functional; conditions: time 123 hrs
Rattus norvegicus [30] = experiment: Anti-hyperuricemic activity against potassium oxonate-induced hyperuricemic Sprague-Dawley rat model assessed as urinary urate level at 2 mg/kg, po pre-administered via gavage twice daily for 5 times followed by potassium oxonate injection for 1 hrs prior to last dose and measured after 3 hrs; assay type: functional; conditions: time 123 hrs
Rattus norvegicus [31] = experiment: as §1, with “clearance” for “glomerular load”, “creatinine” for “urate”, “1” for “4”; assay type: functional; conditions: time 123 hrs

SMILES: COc1c(O)cc2oc3cc(O)c(CC=C(C)C)c(O)c3c(=O)c2c1CC=C(C)C [MANGOSTIN]
- Activity (Rattus norvegicus [1]): 3.7 µmol/min
- Activity (Rattus norvegicus [2]): 46%
- Activity (Rattus norvegicus [3]): 3.6 µmol/min
- Activity (Rattus norvegicus [4]): 15.4 mL/min
- Activity (Rattus norvegicus [5]): 5.8 µmol/L
- Activity (Rattus norvegicus [6]): 14 mL/min
- Activity (Mus musculus [7]): Active
- Activity (Mus musculus [8]): 63%
- Activity (Rattus norvegicus [9]): 71%
- Activity (Mus musculus [10]): Tde
- Activity (Rattus norvegicus [11]): 220 µmol/L
- Ratio (Rattus norvegicus [12]): 2.7
- Activity (Rattus norvegicus [13]): 18.6 mL/min
- Activity (Mus musculus [14]): inactive
- Activity (Rattus norvegicus [15]): 476 µmol
- Activity (Rattus norvegicus [16]): 77%
- Activity [17]: Non-Toxic
- Activity (Rattus norvegicus [18]): 55.2 µmol/L
- Activity (Rattus norvegicus [19]): 54.4 µmol/L
- Activity (Rattus norvegicus [20]): 0.8 mmol/L
- Activity (Rattus norvegicus [21]): 4.4 µmol/min
- Activity (Rattus norvegicus [22]): 10.1 mmol/L
- Activity (Rattus norvegicus [23]): 465 µmol
- Activity (Rattus norvegicus [24]): 10.9 mmol/L
- inhibition (Homo sapiens): 2.6%
- Activity (Rattus norvegicus [25]): 2.4 mmol/L
- Activity (Mus musculus [26]): Active
- Activity (Rattus norvegicus [27]): 55 µmol/L
- Activity [28]: Non-Toxic
- Activity (Rattus norvegicus [29]): 0.9 mmol/L
- Activity (Rattus norvegicus [30]): 2.6 mmol/L
- Activity (Rattus norvegicus [31]): 21.4 mL/min
